The subject of one assay is CB2. Description: Western blot of CB2 levels in MCF7 cells after drug treatment. Particulars: two days; for levels of CB2 relative to controls: LDN 10 nM, 6BN 1 μM or 10 μM, Western blot densitometry normalised to GAPDH, vs no-drug controls. It counts as cell-based. As to the method:
Levels of Bcl2-associated death promoter (BAD), p21 protein, the opioid receptors kappa 1 (OPRK1) and mu 1 (OPRM1), and the cannabinoid receptors CBR1 (CB1) and CBR2 (CB2) are visualised by Western blot (left) against GAPDH as a loading control, and quantified via density analysis relative to GAPDH (right).
One illustrative and non-limiting experiment was carried out on cultures of MCF7 cells. In brief, either LDN at 10 nM or 6BN at 1 μM or 10 μM was administered in vitro to a culture for two days, after which the expression levels of BAD, p21, opioid receptors kappa and mu, CB1, CB2, and GAPDH (as a loading control) were analysed via Western blot and subsequent quantification via density measurement of the bands.
In full, MCF7 cells were seeded into 6-well plates at a density of 1×10^5/well and left to adhere over-night. Naltrexone (10 nM) or 6-β-naltrexol (1 μM or 10 μM) were added to the cells before harvesting cells for western blot analysis. Primary probing was performed with specific antibodies generated against BAD, p21, OPRK1, […], CBR-1 and CBR-2. […] Anti-GAPDH was used as a loading control. All antibodies were used at a dilution of 1:1000, followed by the appropriate HRP conjugated secondary antibodies also at a dilution of 1:1000. Bands were visualised by the SuperSignal chemiluminescent detection system, and densitometry of band intensity was determined using Adobe Photoshop CS3, v10.0, and normalised to the loading control.
On the technique in general: A western blot detects proteins with antibodies after separation by electrophoresis.

Another assay relates to MCF7 cells. Description: Two-stage sequential treatment of MCF7 cells, cell number and viability (trypan blue). It counts as cell-based. The following applies: LDN (10 nM) or 6BN (10 μM) for 48 h, then cannabinoid (cannabidiol 10 μM) for 48 h, compared with other sequences. On the procedure:
Each treatment lasted four days and consisted of two days of treatment with the first agent (UN=control, LDN=Low Dose Naltrexone at 10 nM CBD=Cannabidiol, 6BN=6-β-naltrexol) before the second-named agent was introduced for a further two days.
Another illustrative and non-limiting experiment was carried out on cultures of MCF7 cells. In brief, the cultures were treated with LDN or 6BN for two days, after which a cannabinoid was administered for a further two days. Cell number and viability were assessed on day four. The sequence of the administration for each therapeutic agent was reversed and the experiment repeated.
In full, MCF7 cells were seeded into 6-well plates at a density of 1.5×10^4/well and left to adhere. Cells were then cultured with naltrexone (10 nM), 6-β-naltrexol (10 μM) or cannabidiol (10 μM). Drug-containing media was removed after 48 h, and cells were rinsed gently with drug-free medium. Fresh culture medium was then added to the cells supplemented with either naltrexone (10 nM), 6-β-naltrexol (10 μM) or cannabidiol (10 μM), as indicated in the graph. Cell number and viability were assessed a further 48 h later, with percentages of live and dead cells being discriminated by trypan blue dye exclusion. Data were then consolidated to compare the effect of sequence on overall effect.

“Also recorded” adds a separate entry of the source.

For `O=C1CC[C@@]2(O)[C@H]3Cc4ccc(O)c5c4[C@@]2(CCN3CC2CC2)[C@H]1O5` [LDN, 17-cyclopropylmethyl-4.5α-epoxy-3,14-dihydroxymorphinan-6-one], the “levels of CB2 relative to controls” value in the assay with CB2 was “significant increase; also recorded: increased significantly”. Besides, in the assay with MCF7 cells, the “inhibition of cancer cell proliferation, effect of schedule” value was “most effective; also recorded: more effectively; also recorded: greater effect”.

As to `Oc1ccc2c3c1OC1C(O)CC[C@@]4(O)[C@@H](C2)N(CC2CC2)CC[C@]314` (some centres unmarked) [6BN, N-cyclopropylmethyl-7,8-dihydro-14-hydroxynorisomorphine], in the assay with CB2 (10 μM 6BN compared with 1 μM 6BN and 10 nM LDN), the “rise in CB2 compared among the three treatments” value is “highest”. In addition, the “levels of CB2 relative to controls” value in the assay on CB2 is “significant increase”. The “inhibition of cancer cell proliferation, effect of schedule” value with MCF7 cells is reported as “most effective; also recorded: greater effect”.

Values taken from patent US12324805B2, “Cancer treatment” (LDN Pharma Limited, priority 2017, dated 2025).
